Results reported in patent US20090239891A1 (priority 2006, published 2009).

Assay: Analgesic effect (% MPE) by tail flick method after intravenous injection
Type: in vivo
Details: mice

buprenorphine hydrochloride
% MPE (0.08 hours after i.v. 2.4 mg/kg): 0% | % MPE (0.25 hours after i.v. 2.4 mg/kg): 53.7% | % MPE (0.5 hours after i.v. 2.4 mg/kg): 96.3% | % MPE (1 hour after i.v. 2.4 mg/kg): 100% | % MPE (2 hours after i.v. 2.4 mg/kg): 77.4% | % MPE (3 hours after i.v. 2.4 mg/kg): 93.3% | % MPE (5 hours after i.v. 2.4 mg/kg): 100% | % MPE (7 hours after i.v. 2.4 mg/kg): 72.7% | % MPE (9 hours after i.v. 2.4 mg/kg, hydrochloride, 2.4 mg/kg): 54% | % MPE (9 hours after i.v. 2.4 mg/kg, listed as buprenorphine, hydrochloride, 2.4 mg/kg): 54.4% | % MPE (12 hours after i.v. 2.4 mg/kg, hydrochloride, 2.4 mg/kg): 0% | % MPE (12 hours after i.v. 2.4 mg/kg, listed as buprenorphine, hydrochloride, 2.4 mg/kg): 8.1% | % MPE (18 hours after i.v. 2.4 mg/kg): 0% | % MPE (24 hours after i.v. 2.4 mg/kg): 0% | onset of analgesic effect (after i.v. 2.4 mg/kg): 15 min | duration of analgesic effect (after i.v. bolus 2.4 mg/kg): 9 h | analgesic effect observed (between 12 and 24 hours after i.v. 2.4 mg/kg): No analgesic effect
